Test results: paper PMC8348310, “Antioxidants Isolated from Elaeagnus umbellata (Thunb.) Protect against Bacterial Infections and Diabetes in Streptozotocin-Induced Diabetic Rat Model” (Molecules, 2021)
In brackets after ≈: the same amount, converted by molar mass. Several values for one entry are separate records, joined by “and”; a condition that tells them apart may be missing. Identical values can stand only once.

What was measured:
[1] = tested on: Staphylococcus aureus; test: Agar well diffusion, zone of inhibition; format: cell-based; settings: 37 °C, 24 h; for Zone of Inhibition: 100 µg/mL
Description: The antibacterial activity of the isolated compounds (morin, phloroglucinol, and 1-hexyl benzene) was determined using agar well diffusion method. Muller–Hinton agar media was prepared and autoclaved at 15 lbs pressure for 20 min and cooled to 45 °C. […] The entire wells were filled with 100 µL of the isolated compounds (stock solution: 1 mg/mL) using microtiter-pipette and allowed to diffuse at room temperature for 2 h. The plates were incubated at 37 °C for 24 h. In the center hole, Imipenem was added which served as positive control. Simultaneous, addition of an equal concentration of DMSO solvent instead of isolated compounds was used as blank. After incubation, the zones of inhibition were measured in millimeters (mm) and mean values were calculated. The experiments were performed in triplicates.

[2] = DPPH free radical scavenging assay; format: biochemical; settings: for DPPH IC50: linear regression of % scavenging vs concentration
Description: According to the Brand-Williams assay DPPH (2, 2-diphenyl-1-picrylhydrazyl) free radical scavenging activity of morin was determined. DPPH and compounds stock solutions (1 mg/mL) were prepared in 100 mL methanol with serial dilutions of […], 62.5, 250, 500, and 1000 µg/mL. After that, 0.1 mL morin was mixed with 3.0 mL DPPH solution and incubated at 23 °C for 30 min. Standard ascorbic acid solution was also prepared in the same way using as a positive control. Finally, absorbance was measured at 517 nm via UV spectrophotometer. Results were taken in a set of three experiments and represented as mean ± SEM. Percent free radicals scavenging potential was calculated according to the following Equation (1): (1) % Free radicals Scavenging potential = Blank sample absorbance−sample absorbance/Blank sample absorbance×100
(§1) All the in vitro and in vivo experiments were analyzed in three replicates and determined as mean ± SEM. Student’s t-test and one way ANOVA followed by Dunnett’s post hoc multiple comparison test was used. p ≤ 0.05 were considered as significant. Linear regression analysis was used to calculate the IC50 value for % DPPH, ABTS, α-amylase, and α-glucosidase inhibition against the different concentrations of the test samples by means of Excel program 2007.

[3] = target: T1, Type-VI α-amylase (porcine pancreas) (Sus scrofa, UniProt P00690); test: In vitro α-amylase inhibition assay (DNSA); format: biochemical; settings: for inhibition at 31.05 µg/mL / inhibition at 62.5 µg/mL / inhibition at 125 µg/mL / inhibition at 250 µg/mL / inhibition at 500 µg/mL / inhibition at 1000 µg/mL: read-out: % α-Amylase Inhibition Mean ± SEM; for IC50: linear regression of % inhibition vs concentration
T1 construct: purchased Sigma Aldrich (Darmstadt, Germany); host or cells: porcine pancreas
T1 sequence (P00690 16-511): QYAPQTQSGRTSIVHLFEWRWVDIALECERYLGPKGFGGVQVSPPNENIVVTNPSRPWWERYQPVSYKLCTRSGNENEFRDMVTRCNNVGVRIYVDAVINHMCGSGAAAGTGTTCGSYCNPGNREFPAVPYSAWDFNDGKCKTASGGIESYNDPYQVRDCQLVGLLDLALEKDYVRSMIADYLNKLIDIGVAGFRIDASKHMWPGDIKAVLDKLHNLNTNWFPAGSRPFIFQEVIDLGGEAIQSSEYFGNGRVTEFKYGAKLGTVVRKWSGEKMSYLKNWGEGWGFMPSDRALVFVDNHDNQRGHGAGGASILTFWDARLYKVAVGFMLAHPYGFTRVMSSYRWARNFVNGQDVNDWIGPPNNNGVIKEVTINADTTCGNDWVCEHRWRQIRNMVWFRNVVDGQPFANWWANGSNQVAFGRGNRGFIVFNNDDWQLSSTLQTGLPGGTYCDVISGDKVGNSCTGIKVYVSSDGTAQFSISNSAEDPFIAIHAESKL
Description: The α-amylase inhibition activity of morin was assessed using 3, 5-dinitrosalicylic acid (DNSA) assay. Morin, phloroglucinol, and 1-hexyl benzene were dissolved in mixture of 10% DMSO, 0.02M Na2HPO4/NaH2PO4 buffer, and 0.006M NaCl (pH 6.9) and finally dilutions (31.05, 62.5, 125, 250, 500 and 1000 µg/mL) were prepared. In total, 200 μL α-amylase (2 units/mL) was mixed with 200 μL morin and incubated at 30 °C for 10 min. After that, 200 μL starch (1%) was added to each serial dilution and incubated for 3 min. To stop the reaction 200 μL sodium potassium tartrate tetrahydrate reagent, 2M NaOH, and […] DNSA (96mM) reagent were added to the reaction mixture. The reaction mixtures were boiled for 10 min at 85–90 °C in a water bath. After cooling the mixture was diluted with 5mL distilled water and finally at 540 nm absorbance was recorded. A blank solution was prepared containing only isolated compound morin but no enzyme. […] The α-amylase enzyme inhibitory activity was calculated by the following Equation (2): (2) % α − amylase Inhibition =control absorbance−sample absorbance/control absorbance×100
as §1

[4] = tested on: Salmonella typhi; test: Broth dilution MIC determination; format: cell-based; settings: Salmonella enterica, 24 h, read-out: Minimum Inhibitory Concentrations
[5] = target: Type-I α-glucosidase (Baker Yeast) (Saccharomyces cerevisiae, UniProt P53341); test: In vitro α-glucosidase inhibition assay (PNPG); format: biochemical; settings: read-out: % α-Glucosidase Inhibition Mean ± SEM
From the text: Chemicals such as Tween-80 (Scharlau-chem., Barcelona, Spain), normal saline solution (Utsoka Pharma, Las Bela Baluchistan, Pakistan), lipid profile tests kits (Human, Hamburg, Germany), renal profile tests kits, and antioxidant enzymes kits (Biomed: Germany; diagnostic) were used in in vivo study. Mueller Hinton (MH) agar and broth (Merck, Modderfontein, South Africa) were used to culture the bacterial strains. Various solvents such as methanol, n-hexane, ethyl acetate, and chloroform (Merck, Darmstadt, Germany) were also used in this study.
The α-glucosidase inhibition potential of morin was determined according to the reported method with minor changes. The reaction mixture was prepared by taking 100 μL α-glucosidase (0.5 unit/mL), 600 μL phosphate buffer (0.1 M; pH 6.9), and 50 μL of isolated compounds (morin, phloroglucinol, and 1-hexyl benzene) with serial dilutions of 31.05, 62.5, 125, 250, 500 and 1000 µg/mL. All the reaction mixtures were incubated at 37 °C for 15 min. The enzymatic reactions were started by adding 100 μL substrate (p-nitro-phenyl-α-D-glucopyranoside) solution (5 mM) formed in phosphate buffer (0.1 M; pH 6.9), finally incubated at 37 °C for 15 min. The reaction was completed by adding sodium carbonate (400 μL; 0.2 M) solution and then at 405 nm absorbance was measured. The blank solution was prepared containing only isolated compounds without α-glucosidase. Percent α-glucosidase inhibition potential was calculated using Equation (3): (3) % α − glucosidase Inhibition =control absorbance−sample absorbance/control absorbance×100
as §1

Chain of Type-I α-glucosidase (Baker Yeast) (P53341 whole entry): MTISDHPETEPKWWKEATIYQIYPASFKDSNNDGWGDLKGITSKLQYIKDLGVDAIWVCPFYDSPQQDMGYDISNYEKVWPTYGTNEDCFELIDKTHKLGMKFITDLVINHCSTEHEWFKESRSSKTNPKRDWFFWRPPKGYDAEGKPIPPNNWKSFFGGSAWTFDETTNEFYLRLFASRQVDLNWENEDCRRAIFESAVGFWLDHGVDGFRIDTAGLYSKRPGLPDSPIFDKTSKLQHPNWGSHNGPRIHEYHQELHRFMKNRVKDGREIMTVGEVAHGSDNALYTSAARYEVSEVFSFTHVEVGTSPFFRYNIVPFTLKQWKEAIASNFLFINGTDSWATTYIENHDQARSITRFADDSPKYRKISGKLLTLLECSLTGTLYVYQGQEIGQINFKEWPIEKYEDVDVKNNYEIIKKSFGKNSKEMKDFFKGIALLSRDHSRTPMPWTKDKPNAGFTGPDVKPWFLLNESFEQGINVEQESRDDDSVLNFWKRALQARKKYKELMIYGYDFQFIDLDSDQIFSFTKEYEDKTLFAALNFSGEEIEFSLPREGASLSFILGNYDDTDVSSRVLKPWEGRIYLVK

Compound | Zone of Inhibition [1] [mm] | zone of inhibition at 100 µg/mL [1] [mm] | % DPPH Scavenging Mean ± SEM ([2]; 31.05 µg/mL) [%] | % DPPH Scavenging Mean ± SEM ([2]; 62.5 µg/mL) [%] | % DPPH Scavenging Mean ± SEM ([2]; 250 µg/mL) [%] | % DPPH Scavenging Mean ± SEM ([2]; 500 µg/mL) | % DPPH Scavenging Mean ± SEM ([2]; 1000 µg/mL) | DPPH IC50 [2] [µg/mL] | inhibition at 31.05 µg/mL [3] [%] | inhibition at 62.5 µg/mL [3] [%] | inhibition at 125 µg/mL [3] [%] | inhibition at 250 µg/mL [3] [%] | inhibition at 500 µg/mL [3] [%] | inhibition at 1000 µg/mL [3] [%] | IC50 [3] [µM] | MIC [4] [µg/mL] | inhibition at 31.05 µg/mL [5] [%] | inhibition at 62.5 µg/mL [5] [%] | inhibition at 125 µg/mL [5] [%] | inhibition at 250 µg/mL [5] [%] | also measured
CCCCCCc1ccccc1 [1-Hexyl benzene, 1-hexylbenzene] | 3.4 ± 0.4 | 3.4 ± 0.4 | 28 ± 1.1 | 35 ± 0.4 | 46 ± 0.5 | 53 ± 2.1 % | 59 ± 1.5 % | 118 | 22 ± 1.1 | 28 ± 2.1 | 37 ± 1.4 | 44 ± 0.5 | 49 ± 2.1 | 55 ± 1.5 | 709 | 112 ± 1.6 (≈ 690 µM) | 28 ± 1.2 | 32 ± 0.4 | 39 ± 1.1 | 45 ± 0.5 | inhibition at 500 µg/mL [5]: 50 ± 1.2%; inhibition at 1000 µg/mL [5]: 58 ± 2.1%
O=c1c(O)c(-c2ccc(O)cc2O)oc2cc(O)cc(O)c12 [Morin, 2-(2,4-Dihydroxyphenyl)-3,5,7-trihydroxychromen-4-one] | 13 ± 0.4 | 13 ± 0.4 | 54 ± 0.5 | 59 ± 1.3 | 76 ± 1.0 | 83 ± 0.5 ^ns % | 88± 1.1% and 88 ± 1.1 ^ns % | 37 | 37 ± 1.1 | 44 ± 2.1 | 54 ± 1.4 | 60 ± 0.5 | 67 ± 1.4 | 75 ± 1.5 | 182 | 28 ± 1 (≈ 92.6 µM) | 42 ± 1.4 | 48 ± 0.3 | 52 ± 0.5 | 59 ± 1.4 | inhibition at 500 µg/mL [5]: 66 ± 0.4%; inhibition at 1000 µg/mL [5]: 79 ± 1%
Oc1cc(O)cc(O)c1 [Phloroglucinol, Benzene-1,3,5-triol] | 9.5 ± 2.1 | 9.5 ± 2.1 | 32 ± 0.5 | 36 ± 1.1 | 51 ± 1.0 | 57 ± 1.0 % | 67 ± 0.4 % | 105 | 29 ± 1 | 32 ± 1.4 | 39 ± 1.5 | 42 ± 0.4 | 55 ± 1.1 | 63 ± 0.5 | 753 | 175 ± 2 (≈ 1390 µM) | 27 ± 1 | 30 ± 1.4 | 37 ± 1.5 | 43 ± 0.4 | inhibition at 500 µg/mL [5]: 48 ± 0.5%; inhibition at 1000 µg/mL [5]: 55 ± 2.1%
